These results are taken from ChEMBL document CHEMBL3585240, “Synthesis and biological evaluation of caracasine acid derivatives” (Bioorg Med Chem, 2015).

The subject of one test is Pseudomonas aeruginosa. The test is described as follows: Antibacterial activity against Pseudomonas aeruginosa ATCC 27853 assessed as growth inhibition at 2 mg/ml after 24 hrs by disc agar diffusion method. To be noted: for zone of inhibition at 2000 µg/mL: ATCC 27853, 24 h, read-out: DIZ. Type of test: functional.
The subject of the next test is Leishmania mexicana. The test is described as follows: Antileishmanial activity against promastigote stage of Leishmania mexicana Bel21 assessed as growth inhibition after 48 hrs by MTT assay. Type of test: functional, organism-based. To be noted: Bel21, 48 h. On the technique in general: Tetrazolium dyes change colour on reduction, which living cells bring about.

The next test deals with Trypanosoma cruzi. Put plainly: Antitrypanosomal activity against epimastigote stage of Trypanosoma cruzi CL Brener assessed as growth inhibition after 5 days by MTT assay. Type of test: functional. To be noted: 120 h.
Test [1] can be described thus: Selectivity index, ratio of IC50 for human skin fibroblasts to IC50 for epimastigote stage of Trypanosoma cruzi CL Brener.
Test [2] deals with MCF7. The test is described as follows: Selectivity index, ratio of IC50 for human skin fibroblasts to IC50 for human MCF7 cells.
For the next test, the system named is Escherichia coli. The test is described as follows: Antibacterial activity against Escherichia coli ATCC 35218 assessed as growth inhibition at 2 mg/ml after 24 hrs by disc agar diffusion method. Type of test: functional. The settings on record: for zone of inhibition at 2000 µg/mL: ATCC 35218, 24 h, read-out: DIZ.
A further test concerns Bacillus cereus. Put plainly: Antibacterial activity against Bacillus cereus ATCC 14579 assessed as growth inhibition at 2 mg/ml after 24 hrs by disc agar diffusion method. Type of test: functional. The settings on record: for zone of inhibition at 2000 µg/mL: ATCC 14579, 24 h, read-out: DIZ.
The nature of test [3]: Cytotoxicity against human skin fibroblasts assessed as growth inhibition after 72 hrs by MTT assay. To be noted: Skin fibroblast.
For test [4], the system named is PC-3. Put plainly: Selectivity index, ratio of IC50 for human skin fibroblasts to IC50 for human PC3 cells.
Test [5] concerns MCF7. Put plainly: Cytotoxicity against human MCF7 cells assessed as growth inhibition after 72 hrs by MTT assay. Type of test: functional, cell-based. To be noted: MCF7, 72 h.
Test [6] relates to PC-3. The test is described as follows: Cytotoxicity against human PC3 cells assessed as growth inhibition after 72 hrs by MTT assay. Type of test: functional, cell-based. To be noted: PC-3, 72 h.
The test system of a further test is Staphylococcus aureus. Put plainly: Antibacterial activity against Staphylococcus aureus ATCC 25923 assessed as growth inhibition at 2 mg/ml after 24 hrs by disc agar diffusion method. Type of test: functional. The settings on record: for zone of inhibition at 2000 µg/mL: ATCC 25923, 24 h, read-out: DIZ. For orientation: A growth-free zone around the sample is the usual read-out of agar diffusion tests.

Test [7] can be described thus: Selectivity index, ratio of IC50 for human skin fibroblasts to IC50 for promastigote stage of Leishmania mexicana Bel21.

The IC50 is the midpoint of a concentration-inhibition curve.

Active and inactive are the calls of the source. The calls are words filed in the database; no cut-off is given here.

Turning to `C=C1C(=O)[C@@]23CC[C@H](C(=C)C)[C@@](C)(CCC(=O)OC(C)C)[C@@H]2CC[C@H]1C3`, the zone of inhibition at 2000 µg/mL with Pseudomonas aeruginosa and in the test on Staphylococcus aureus was 15 mm throughout. For the same compound, the half-maximal inhibitory concentration (IC50) turned out to be 1.5 µM in the test on Leishmania mexicana; 4.1 µM in the test with Trypanosoma cruzi; 7.5 µM in test [3]; 5.4 µM in the test on MCF7 [5]; 5.4 µM in the test on PC-3 [6]. In addition, the “Ratio IC50” value was 1.8 in test [1], 1.4 in the test on MCF7 [2], 1.4 in the test on PC-3 [4] and 5 in test [7]. Further, the “growth inhibition (GI)” value in the test on Escherichia coli and in the test on Bacillus cereus was “inactive” each time.

On to `C=C(C)[C@H]1CC[C@@]23C[C@H](CC[C@H]2[C@]1(C)CCC(=O)OC)C(COC)C3=O` (stereo partly drawn), for which the zone of inhibition at 2000 µg/mL with Pseudomonas aeruginosa was found to be 15 mm; in the test on Escherichia coli it was 15 mm; in the test on Bacillus cereus, 12 mm; in the test with Staphylococcus aureus it was 13 mm.

In the case of `C=C(C)[C@H]1CC[C@@]23C[C@H](CC[C@H]2[C@]1(C)CCC(=O)O)C(CC#N)C3=O` (stereo partly drawn), the “growth inhibition (GI)” value in the test on Pseudomonas aeruginosa, with Escherichia coli, with Bacillus cereus and in the test with Staphylococcus aureus was “inactive” in each case. Besides, the IC50 is over 44 µM in the test on Leishmania mexicana, 51.9 µM in [3], 144 µM with MCF7 [5] and over 138 µM in the test with PC-3 [6]. In addition, the figures for the “Ratio IC50” value (in the test with MCF7 [2]; in test [7]) were 0.5 and under 1.2, respectively.

For `C=C(C)[C@H]1CC[C@@]23C[C@H](CC[C@H]2[C@]1(C)CCC(=O)O)C(C)C3=O` (stereo partly drawn), the values for the zone of inhibition at 2000 µg/mL in the test on Pseudomonas aeruginosa and in the test on Bacillus cereus were 18 mm and 20 mm, respectively. The IC50 in the test with Leishmania mexicana is over 47 µM; in test [3], over 157 µM; in the test on MCF7 [5], 110 µM. For the same compound, the “Ratio IC50” value in the test with MCF7 [2] is on record as over 1.4. The “growth inhibition (GI)” value in the test on Escherichia coli and with Staphylococcus aureus was “inactive” in each case.

Consider `C=C1C(=O)[C@@]23CC[C@H](C(=C)C)[C@@](C)(CCC(=O)NC4CCCCC4)[C@@H]2CC[C@H]1C3`, for which the zone of inhibition at 2000 µg/mL was determined as 12 mm in the test with Pseudomonas aeruginosa, 16 mm in the test on Escherichia coli, 15 mm with Bacillus cereus and 15 mm with Staphylococcus aureus. Further, the 50% inhibitory concentration (IC50) in the test with Leishmania mexicana was 2 µM; with Trypanosoma cruzi, 2.8 µM; in [3], 12 µM; in the test with MCF7 [5], 10 µM; in the test on PC-3 [6] it was 3.9 µM. In addition, the “Ratio IC50” value amounted to 4.3 in [1], 1.2 in the test with MCF7 [2], 3.1 in the test with PC-3 [4] and 6 in test [7].

As to `C=C1C(=O)[C@@]23CC[C@H](C(C)(O)CO)[C@@](C)(CCC(=O)O)[C@@H]2CC[C@H]1C3` (stereo partly drawn), the “growth inhibition (GI)” value in the test on Pseudomonas aeruginosa and in the test on Staphylococcus aureus was “inactive” each time. Further, the IC50 is 42.8 µM in the test with Leishmania mexicana; 42.6 µM with Trypanosoma cruzi; 25.4 µM in test [3]; 46.3 µM in the test on MCF7 [5]; 21.9 µM in the test with PC-3 [6]. Further, the “Ratio IC50” value in test [1] was 0.6; in the test on MCF7 [2], 0.5; with PC-3 [4], 1.2; in [7], 0.6. The figures for the zone of inhibition at 2000 µg/mL in the test on Escherichia coli and in the test with Bacillus cereus were 15 mm and 20 mm, respectively.

`C=C1C(=O)[C@@]23CC[C@H](C(=C)C)[C@@](C)(CCC(=O)O)[C@@H]2CC[C@H]1C3`: the zone of inhibition at 2000 µg/mL was 30 mm in the test on Pseudomonas aeruginosa, 22 mm in the test on Escherichia coli, 22 mm in the test with Bacillus cereus and 24 mm in the test on Staphylococcus aureus. Moreover, the half-inhibitory concentration (IC50) in the test on Leishmania mexicana was determined as 30.8 µM; in the test on Trypanosoma cruzi it was 22.3 µM; in test [3], 39.7 µM; in the test on MCF7 [5], 15.8 µM; with PC-3 [6] it was 7.9 µM. Besides, the “Ratio IC50” value is on record as 1.8 in test [1], 2.5 in the test on MCF7 [2], 5 in the test on PC-3 [4] and 1.3 in [7].

As to `C=C(C)[C@H]1CC[C@@]23C[C@H](CC[C@H]2[C@]1(C)CCC(=O)O)C(COCC)C3=O` (stereo partly drawn), the zone of inhibition at 2000 µg/mL came out at 15 mm in the test with Pseudomonas aeruginosa, 14 mm in the test on Escherichia coli, 10 mm in the test with Bacillus cereus and 12 mm in the test with Staphylococcus aureus.

As to `C=C1C(O)[C@@]23CC[C@H](C(=C)C)[C@@](C)(CCC(=O)O)[C@@H]2CC[C@H]1C3` (stereo partly drawn), the zone of inhibition at 2000 µg/mL came out at 20 mm in the test on Pseudomonas aeruginosa, 12 mm in the test on Escherichia coli, 15 mm with Bacillus cereus and 12 mm with Staphylococcus aureus. For the same compound, the IC50 in the test on Leishmania mexicana is over 30 µM; in [3] it was 207 µM; in the test with MCF7 [5], 86.8 µM; in the test with PC-3 [6], 137 µM. Besides, the “Ratio IC50” value in the test on MCF7 [2] is 2.4; in the test on PC-3 [4], 1.5; in [7], under 6.9.

In the case of `C=C1C(=O)[C@@]23CC[C@H](C(=C)C)[C@@](C)(CCC(=O)OC)[C@@H]2CC[C@H]1C3`, the zone of inhibition at 2000 µg/mL came to 15 mm in the test on Pseudomonas aeruginosa, 15 mm in the test with Escherichia coli, 22 mm with Bacillus cereus and 12 mm in the test with Staphylococcus aureus. For the same compound, the IC50 came to 3.4 µM in the test with Leishmania mexicana; 16.5 µM in the test with Trypanosoma cruzi; 11.3 µM in test [3]; 11.2 µM in the test with MCF7 [5]; 3.6 µM in the test with PC-3 [6]. The “Ratio IC50” value worked out at 0.7 in test [1], 1 in the test with MCF7 [2], 3.1 in the test on PC-3 [4] and 3.3 in [7].

Take `C=C1C(=O)[C@@]23CC[C@H](C(=C)C)[C@@](C)(CCC(=O)OC4CCCCC4)[C@@H]2CC[C@H]1C3`: the zone of inhibition at 2000 µg/mL turned out to be 30 mm in the test with Pseudomonas aeruginosa, 28 mm in the test with Escherichia coli, 12 mm in the test on Bacillus cereus and 30 mm in the test on Staphylococcus aureus. Also, the IC50 with Leishmania mexicana is 1.2 µM; in the test on Trypanosoma cruzi it was 5.5 µM; in test [3], under 3.9 µM; with MCF7 [5] it was 2.1 µM; with PC-3 [6], 1.9 µM. The “Ratio IC50” value in [1] is recorded as under 0.7; in the test on MCF7 [2] it was 1.9; in the test with PC-3 [4] it was 2.1; in [7], under 3.3.

Turning to `C=C1C(=O)[C@@]23CC[C@H](C(=C)C)[C@@](C)(CCC(=O)OCCC)[C@@H]2CC[C@H]1C3`, the “growth inhibition (GI)” value in the test on Pseudomonas aeruginosa and in the test with Escherichia coli was “inactive” throughout. Also, the IC50 in the test with Leishmania mexicana stood at 1.5 µM; with Trypanosoma cruzi, 3.1 µM; in [3], 6.2 µM; in the test on MCF7 [5], 6.6 µM; in the test on PC-3 [6], 4.2 µM. In addition, the “Ratio IC50” value in test [1] stood at 2; in the test with MCF7 [2], 0.9; in the test on PC-3 [4] it was 1.5; in [7], 4.1. For the same compound, the figures for the zone of inhibition at 2000 µg/mL in the test with Bacillus cereus and in the test with Staphylococcus aureus were 20 mm and 12 mm, respectively.

In the case of `C=C(C)[C@H]1CC[C@@]23C[C@H](CC[C@H]2[C@]1(C)CCC(=O)OC)C(CC(C#N)P(=O)(OCC)OCC)C3=O` (stereo partly drawn), the “growth inhibition (GI)” value with Pseudomonas aeruginosa, with Escherichia coli, in the test on Bacillus cereus and in the test on Staphylococcus aureus was “inactive” throughout.

`C=C1C(=O)[C@@]23CC[C@H](C(=C)C)[C@@](C)(CCC(=O)OCC)[C@@H]2CC[C@H]1C3`: the “growth inhibition (GI)” value with Pseudomonas aeruginosa, with Escherichia coli, with Bacillus cereus and in the test on Staphylococcus aureus was “inactive” each time. In addition, the half-inhibitory concentration (IC50) was 1.6 µM in the test on Leishmania mexicana; 2.7 µM with Trypanosoma cruzi; 3.7 µM in [3]; 5.1 µM in the test with MCF7 [5]; 4.4 µM in the test with PC-3 [6]. For the same compound, the “Ratio IC50” value was 1.4 in test [1], 0.7 in the test on MCF7 [2], 0.8 in the test on PC-3 [4] and 2.3 in test [7].

In the case of `C=C(C)[C@H]1CC[C@@]23C[C@H](CC[C@H]2[C@]1(C)CCC(=O)O)C(CSCc1ccccc1)C3=O` (stereo partly drawn), the zone of inhibition at 2000 µg/mL worked out at 15 mm in the test with Pseudomonas aeruginosa, 25 mm in the test with Escherichia coli, 20 mm with Bacillus cereus and 22 mm in the test on Staphylococcus aureus. Further, the results for the IC50 (with Leishmania mexicana; with Trypanosoma cruzi; in test [3]) were 22.1 µM, 39.3 µM and 42.7 µM, respectively. The results for the “Ratio IC50” value in [1] and in test [7] were 1.1 and 1.9, respectively.

As to `C=C1C(=O)[C@@]23CC[C@H](C4(C)CO4)[C@@](C)(CCC(=O)O)[C@@H]2CC[C@H]1C3` (stereo partly drawn), the zone of inhibition at 2000 µg/mL with Pseudomonas aeruginosa amounted to 18 mm; with Escherichia coli, 18 mm; in the test with Bacillus cereus it was 20 mm; with Staphylococcus aureus, 25 mm. The “Ratio IC50” value was 1.1 in the test with MCF7 [2] and 3.9 in the test with PC-3 [4]. In addition, the 50% inhibitory concentration (IC50) amounted to 24.7 µM in test [3], 22.6 µM with MCF7 [5] and 6.4 µM in the test with PC-3 [6].
